Molecules are shown by their SMILES.

The subject of one data set is HEp-2. Kind of data set: Cytotoxicity against human Hep2 cells. In kind it is cell-based.
A further data set concerns Daoy. The data set is described as follows: Cytotoxicity against human DaOY cells. The data set is classed as cell-based.
A further data set relates to MCF7. Kind of data set: Cytotoxicity against human MCF7 cells. In kind it is cell-based.
The test system of a further data set is HeLa. The data set is described as follows: Cytotoxicity against human HeLa cells. The data set is classed as cell-based.
In data set [1] the test system is RAW264.7. Kind of data set: Antiinflammatory activity in LPS-stimulated mouse RAW264.7 cells assessed as reduction in iNOS protein expression at 10 uM by immunoblot analysis. Also noted: scale not given: the % may be the effect or the level left. The data set is classed as functional. (In western blotting, separated proteins are transferred to a membrane and probed.)

In data set [2] the test system is RAW264.7. The data set is described as follows: Antiinflammatory activity in LPS-stimulated mouse RAW264.7 cells assessed as reduction in COX2 protein expression at 10 uM by immunoblot analysis. In kind it is functional. On the set-up: scale not given: the % may be the effect or the level left.

Consider `CC(=O)O[C@H]1[C@H](C(C)C)[C@@H]2[C@@H]([C@H]3C[C@@H](C)C(=O)CC[C@@](C)(OC(C)=O)[C@@H]2O3)[C@](O)(CCl)[C@H]1OC(C)=O` [KLYMOLLIN A], for which the Activity result in the data set with HEp-2, in the data set on Daoy, in the data set on MCF7 and with HeLa was “Non-toxic” each time.
Turning to `CC(=O)O[C@H]1[C@H](C(C)C)[C@@H]2[C@@H]([C@H]3C[C@](C)(O)[C@@H](OC=O)CC[C@@](C)(OC(C)=O)[C@@H]2O3)[C@]2(CO2)[C@H]1OC(C)=O` [KLYMOLLIN H], the Activity was 32.6% in the data set on RAW264.7 [1]; “Non-toxic” in the data set on HEp-2; “Non-toxic” in the data set with Daoy; “Non-toxic” with MCF7; “Non-toxic” in the data set with HeLa.
`C=C1C[C@H]2O[C@H]([C@@H]3[C@@H](C(C)C)[C@H](OC(C)=O)[C@H](OC(C)=O)[C@@]4(CO4)[C@@H]32)[C@](C)(OC(C)=O)CC[C@@H]1O` (relative stereo): the Activity with RAW264.7 [1] is 42.1%; in the data set with HEp-2 it was “Non-toxic”; in the data set on Daoy, “Non-toxic”; with MCF7 it was “Non-toxic”; with HeLa, “Non-toxic”.
On to `C=C1C[C@H]2O[C@H]([C@H]3[C@@H]2[C@]2(CO2)[C@@H](OC(C)=O)C[C@@H]3C(C)C)[C@](C)(OC(C)=O)CC[C@@H]1O` (relative stereo), for which the Activity is listed as 25.1% with RAW264.7 [1]; “Non-toxic” with HEp-2; “Non-toxic” in the data set with Daoy; “Non-toxic” in the data set on MCF7; “Non-toxic” in the data set on HeLa.
Turning to `CC(=O)O[C@H]1[C@H](C(C)C)[C@@H]2[C@@H]([C@H]3C[C@](C)(O)[C@@H](OC(C)=O)CC[C@@](C)(OC(C)=O)[C@@H]2O3)[C@]2(CO2)[C@H]1OC(C)=O` (relative stereo), the Activity in the data set on RAW264.7 [1] was 25.7%; in the data set with HEp-2, “Non-toxic”; in the data set on Daoy, “Non-toxic”; with MCF7 it was “Non-toxic”; with HeLa it was “Non-toxic”.
As for `CC(=O)O[C@H]1[C@H](C(C)C)[C@@H]2[C@@H]([C@H]3C[C@H](C)C(=O)CC[C@@](C)(OC(C)=O)[C@@H]2O3)[C@](O)(CCl)[C@H]1OC(C)=O` [KLYMOLLIN B], the Activity result with HEp-2, in the data set with Daoy, with MCF7 and with HeLa was “Non-toxic” each time.
Regarding `CCCCCCCCCCCCCC(=O)O[C@H]1CC[C@@](C)(OC(C)=O)[C@@H]2O[C@H](C[C@]1(C)O)[C@@H]1[C@H]2[C@@H](C(C)C)[C@H](OC(C)=O)[C@H](OC(C)=O)[C@@]12CO2` (relative stereo), the Activity in the data set with RAW264.7 [1] is 6%; in the data set with HEp-2, “Non-toxic”; with Daoy, “Non-toxic”; with MCF7, “Non-toxic”; in the data set on HeLa it was “Non-toxic”; in the data set on RAW264.7 [2] it was 8.5%.
As for `CCCCCCCCCCCCCCCC(=O)O[C@H]1CC[C@@](C)(OC(C)=O)[C@@H]2O[C@H](C[C@]1(C)O)[C@@H]1[C@H]2[C@@H](C(C)C)[C@H](OC(C)=O)[C@H](OC(C)=O)[C@@]12CO2` (relative stereo), the Activity is recorded as 5.2% in the data set on RAW264.7 [1]; “Non-toxic” with HEp-2; “Non-toxic” with Daoy; “Non-toxic” with MCF7; “Non-toxic” in the data set with HeLa; 4.4% in the data set with RAW264.7 [2].

For the origin of these results see ChEMBL document CHEMBL1921708, “Klymollins A-H, bioactive eunicellin-based diterpenoids from the formosan soft coral Klyxum molle” (J Nat Prod, 2011).
